Data reported in ChEMBL document CHEMBL1131555 (Bioorg Med Chem Lett, 1998).
pKi: −log10 of the molar value.

Experiments:
Glucocorticoid receptor = biological target: T1, Glucocorticoid receptor (Homo sapiens, UniProt P04150)
T1 sequence (P04150 whole entry): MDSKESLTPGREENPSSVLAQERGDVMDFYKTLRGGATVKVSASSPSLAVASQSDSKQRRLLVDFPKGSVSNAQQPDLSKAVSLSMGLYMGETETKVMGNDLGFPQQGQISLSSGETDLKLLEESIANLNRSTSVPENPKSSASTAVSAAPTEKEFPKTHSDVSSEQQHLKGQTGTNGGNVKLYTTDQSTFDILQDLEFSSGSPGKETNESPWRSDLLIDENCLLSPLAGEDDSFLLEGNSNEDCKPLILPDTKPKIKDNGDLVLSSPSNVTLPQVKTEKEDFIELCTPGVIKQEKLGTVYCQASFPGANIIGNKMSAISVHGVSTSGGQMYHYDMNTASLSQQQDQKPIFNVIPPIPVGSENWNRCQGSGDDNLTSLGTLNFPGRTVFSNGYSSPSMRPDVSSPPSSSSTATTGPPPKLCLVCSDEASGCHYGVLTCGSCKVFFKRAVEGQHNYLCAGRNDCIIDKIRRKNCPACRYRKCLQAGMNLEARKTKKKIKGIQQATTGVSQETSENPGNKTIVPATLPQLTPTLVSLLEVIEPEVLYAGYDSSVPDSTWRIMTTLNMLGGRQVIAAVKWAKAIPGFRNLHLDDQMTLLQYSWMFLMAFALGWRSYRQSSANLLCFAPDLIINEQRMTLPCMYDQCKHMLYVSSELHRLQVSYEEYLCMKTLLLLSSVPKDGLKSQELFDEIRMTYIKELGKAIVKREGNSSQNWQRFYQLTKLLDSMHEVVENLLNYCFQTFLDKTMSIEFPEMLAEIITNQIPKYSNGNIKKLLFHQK
Description: Displacement of Dexamethasone from human glucocorticoid receptor

Androgen receptor = biological target: T2, Androgen receptor (Homo sapiens, UniProt P10275)
T2 sequence (P10275 whole entry): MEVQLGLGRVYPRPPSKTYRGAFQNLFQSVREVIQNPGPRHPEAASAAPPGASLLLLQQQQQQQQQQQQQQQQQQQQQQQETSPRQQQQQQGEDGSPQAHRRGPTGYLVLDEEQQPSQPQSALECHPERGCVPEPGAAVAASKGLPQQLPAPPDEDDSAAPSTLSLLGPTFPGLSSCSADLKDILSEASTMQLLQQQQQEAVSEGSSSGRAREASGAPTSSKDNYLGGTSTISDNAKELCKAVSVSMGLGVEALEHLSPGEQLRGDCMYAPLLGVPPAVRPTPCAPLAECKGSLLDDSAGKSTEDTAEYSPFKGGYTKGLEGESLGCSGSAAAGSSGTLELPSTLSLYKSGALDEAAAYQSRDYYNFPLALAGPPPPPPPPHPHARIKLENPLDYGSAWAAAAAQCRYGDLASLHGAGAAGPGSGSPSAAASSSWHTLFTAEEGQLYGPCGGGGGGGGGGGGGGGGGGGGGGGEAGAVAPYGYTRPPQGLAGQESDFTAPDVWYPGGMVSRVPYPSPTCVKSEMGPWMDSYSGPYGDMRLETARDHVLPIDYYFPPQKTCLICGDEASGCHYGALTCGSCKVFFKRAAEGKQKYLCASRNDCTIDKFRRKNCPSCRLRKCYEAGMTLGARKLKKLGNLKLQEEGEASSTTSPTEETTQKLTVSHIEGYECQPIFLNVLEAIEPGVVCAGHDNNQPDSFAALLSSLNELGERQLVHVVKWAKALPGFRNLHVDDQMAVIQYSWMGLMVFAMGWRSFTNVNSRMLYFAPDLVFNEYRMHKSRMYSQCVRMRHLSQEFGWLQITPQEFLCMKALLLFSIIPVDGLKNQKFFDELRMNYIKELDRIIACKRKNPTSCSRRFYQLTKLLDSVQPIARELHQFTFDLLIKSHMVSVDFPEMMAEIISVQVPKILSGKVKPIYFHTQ
Description: Displacement of DHT from human androgen receptor

Structure (SMILES)	pKi (Glucocorticoid receptor)	pKi (Androgen receptor)
CCCCC1Oc2ccc(C)cc2-c2ccc3c(c21)C(C)=CC(C)(C)N3 (stereo not given)	7.29	6.04
CC1=CC(C)(C)Nc2ccc3c(c21)C(C)Oc1ccc(F)cc1-3 (stereo not given)	6.13	6.34
CCCOC1Oc2ccc(Cl)cc2-c2ccc3c(c21)C(C)=CC(C)(C)N3 (stereo not given)	6.59	6.16
CCCCC1Oc2ccc(OC)cc2-c2ccc3c(c21)C(C)=CC(C)(C)N3 (stereo not given)	6.89	6.11
CCCCC1Oc2ccc(F)cc2-c2ccc3c(c21)C(C)=CC(C)(C)N3 (stereo not given)	6.27	5.88
C=CCC1Oc2ccccc2-c2ccc3c(c21)C(C)=CC(C)(C)N3 (stereo not given)	6.05	< 6.00

The remaining compounds from weak to strong by pKi (Glucocorticoid receptor), led by results:

pKi (Glucocorticoid receptor)	pKi (Androgen receptor)	Structure (SMILES)
6.09	5.69	CCCCC1Oc2ccccc2-c2ccc3c(c21)C(C)=CC(C)(C)N3 (stereo not given)
6.40	6.05	CCCCC1Oc2ccc(Cl)cc2-c2ccc3c(c21)C(C)=CC(C)(C)N3 (stereo not given)
6.44	6.21	CC1=CC(C)(C)Nc2ccc3c(c21)C(C)Oc1ccc(Cl)cc1-3 (stereo not given)
6.80	5.83	CC1=CC(C)(C)Nc2ccc3c(c21)C(CCC(C)C)Oc1ccccc1-3 (stereo not given)
